Reference: patent US4201771A (priority 1979, dated 1980)
Read-outs that look alike come from different tables or passages of the source.

Assays:
Assay type in all cases: in vivo
Piricularia oryzae [1] = conditions: for Rice Blast Lesions per 5th Leaf: Table 2, protectant, untreated control 22; for Rice Blast Lesions/5th Leaf Protectant: Table 1, untreated 52
[2] = tested on: Rice, variety Calusa No. 2; experiment: Phytotoxicity / injury on rice in greenhouse bioassay; conditions: Table 2, rice
Description: Host: Rice, variety Calusa No. 2.
Growth Conditions: Rice plants grown to 5 leaf stage in greenhouse on Swiss Farm Potting soil in 7 ounce styrafoam pots. Thinned to 3 seedlings per pot. Day temperature 20°-28° C.; night temperature 15°-20° C. Soluble 20--20--20 fertilizer applied weekly.
Treatment: Test solutions or suspensions of candidate compounds sprayed on both leaf surfaces to run-off with a No. 152 DiVilbiss atomizer at 10 psi. Formulations are prepared by dissolving compounds in methanol-Tween 20 mixture and bringing to volume with deionized water.

[3] = tested on: Puccinia recondita f. sp. tritici; conditions: 1000 PPM; untreated 42
Piricularia oryzae [4] = conditions: 1000 PPM; untreated 69
[5] = tested on: Puccinia recondita f. sp. tritici; conditions: untreated 27
Phytophthora infestans = conditions: untreated 84

With CCCCNC(=O)n1c(NC(=O)OC)nc2ccccc21 [Benomyl, [1-[(Butylamino)carbonyl]-1H-benzimidazol-2-yl]carbamic acid methyl ester] the “Rice Blast Lesions per 5th Leaf” value (Piricularia oryzae [1]; 1 PPM) was 4, the “Rice Blast Lesions per 5th Leaf” value (Piricularia oryzae [1]; 10 PPM) was 4 and the “Rice Blast Lesions per 5th Leaf” value (Piricularia oryzae [1]; 100 PPM) was 0.1. The “Remarks (plant injury)” value ([2]; 1 PPM) was “no injury”, the “Remarks (plant injury)” value ([2]; 10 PPM) was “no injury” and the “Remarks (plant injury)” value ([2]; 100 PPM) was “no injury”.

For CC1=C(C(=O)Nc2ccccc2)SCCO1 [Carboxin, 5,6Dihydro-2-methyl-N-phenyl-1,4-oxathiin-3-carboxamide], the “Wheat Leaf Rust Pustules/Leaf Systemic” value [3] was 4.

For CCOP(=O)(Sc1ccccc1)Sc1ccccc1 [Hinosan, O-Ethyl 5,5-diphenylphosphorodithioate], the “Rice Blast Lesions/5th Leaf Protectant” value (Piricularia oryzae [1]; 1 PPM) was 16, the “Rice Blast Lesions/5th Leaf Protectant” value (Piricularia oryzae [1]; 10 PPM) was 8 and the “Rice Blast Lesions/5th Leaf Protectant” value (Piricularia oryzae [1]; 100 PPM) was < 1. The “Rice Blast Lesions/5th Leaf Systemic” value (Piricularia oryzae [4]) was 31.

S=C([S-])NCCNC(=S)[S-].[Mn+2] [Maneb, [[1,2-Ethanediylbis[carbamodithioato]]-(2-)]manganese] was tested, and the “Wheat Leaf Rust Pustules/Leaf Protectant” value ([5]; 1 PPM) was 20, the “Wheat Leaf Rust Pustules/Leaf Protectant” value ([5]; 10 PPM) was 12 and the “Wheat Leaf Rust Pustules/Leaf Protectant” value ([5]; 100 PPM) was 0. The “Late Blight (Tomato) Phytophthora % Leaf Necrosis Protectant” value (Phytophthora infestans; 1 PPM) was 77%, the “Late Blight (Tomato) Phytophthora % Leaf Necrosis Protectant” value (Phytophthora infestans; 10 PPM) was 63% and the “Late Blight (Tomato) Phytophthora % Leaf Necrosis Protectant” value (Phytophthora infestans; 100 PPM) was 11%.
